In BindingDB's records for doi:10.1074/jbc.M113.521955 (Albert Einstein College of Medicine, 2013):

Experiments:
[1] = target: T1, Orotate phosphoribosyltransferase (Plasmodium falciparum (isolate 3D7), UniProt Q8I3Y0); experiment: Inhibition Assay; conditions: pH 8; 25 °C
T1 sequence (Q8I3Y0 whole entry): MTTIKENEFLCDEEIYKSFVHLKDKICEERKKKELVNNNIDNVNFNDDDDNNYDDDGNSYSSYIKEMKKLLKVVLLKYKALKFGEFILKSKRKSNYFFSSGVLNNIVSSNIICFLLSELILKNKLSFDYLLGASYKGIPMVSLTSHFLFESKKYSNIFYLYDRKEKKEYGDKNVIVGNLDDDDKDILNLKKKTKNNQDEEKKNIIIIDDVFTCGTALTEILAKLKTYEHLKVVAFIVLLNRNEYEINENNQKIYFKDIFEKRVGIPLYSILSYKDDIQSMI
Method: (§1) In all cases, the inhibitor concentration was at least 10 times the enzyme concentration. Reaction rates were monitored through the absorbance increase at 295 nm to give an extinction coefficient of 3.67 mM-1 cm-1 [Abdo et al., Org. Lett., 12:2982-2985].

[2] = target: T2, Uridine 5'-monophosphate synthase (Homo sapiens, UniProt P11172); experiment: Inhibition Assay; conditions: pH 8; 25 °C
T2 sequence (P11172 whole entry): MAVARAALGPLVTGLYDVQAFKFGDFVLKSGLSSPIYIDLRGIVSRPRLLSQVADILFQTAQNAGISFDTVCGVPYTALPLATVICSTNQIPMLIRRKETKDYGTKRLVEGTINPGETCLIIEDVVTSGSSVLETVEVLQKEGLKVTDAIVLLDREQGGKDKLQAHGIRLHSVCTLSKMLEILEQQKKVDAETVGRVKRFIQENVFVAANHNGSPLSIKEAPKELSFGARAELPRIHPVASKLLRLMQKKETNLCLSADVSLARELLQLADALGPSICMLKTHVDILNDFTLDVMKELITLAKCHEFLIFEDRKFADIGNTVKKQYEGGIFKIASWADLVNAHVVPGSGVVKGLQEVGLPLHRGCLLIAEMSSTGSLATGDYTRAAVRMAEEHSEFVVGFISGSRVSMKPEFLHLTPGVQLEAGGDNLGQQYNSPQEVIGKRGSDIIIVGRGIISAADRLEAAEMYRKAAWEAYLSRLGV
Method: as §1

| Ki [1] | Ki [2] | SMILES |
| --- | --- | --- |
| 690 nM | 290 nM | O=C(O)c1cc(=O)[nH]c(=O)n1CCN1CC(O)C(O)[C@H]1CO (stereo not given in full) [OPRT inhibitor, 10] |
| 1300 nM | 520 nM | O=c1[nH]c(=O)n(CCN2CC(O)[C@@H](CO)C2)cc1Br (stereo not given in full) [OPRT inhibitor, 11] |
| 470 nM | 250 nM | O=C(O)c1[nH]c(=O)[nH]c(=O)c1CN1CCCC1 [OPRT inhibitor, 13] |
| 220 nM | 83 nM | O=C(O)c1[nH]c(=O)[nH]c(=O)c1CN1CC(O)[C@@H](CO)C1 (stereo not given in full) [OPRT inhibitor, 14] |
| 500 nM | 240 nM | O=C(O)c1[nH]c(=O)[nH]c(=O)c1CN1CC(O)[C@@H](COP(=O)(O)O)C1 (stereo not given in full) [OPRT inhibitor, 15] |
| 480 nM | 230 nM | O=[N+]([O-])c1ccc([C@@H]2N[C@H](CO)C(O)C2O)cc1 (stereo not given in full) [OPRT inhibitor, 16] |
| 750 nM | 200 nM | O=[N+]([O-])c1ccc(CN2CC(O)[C@@H](CO)C2)cc1 (stereo not given in full) [OPRT inhibitor, 17] |
| 570 nM | 230 nM | O=[N+]([O-])c1ccc(CCN2CC(O)[C@@H](CO)C2)cc1 (stereo not given in full) [OPRT inhibitor, 18] |
| 500 nM | 150 nM | O=[N+]([O-])c1ccc(CNC(CO)CO)cc1 [OPRT inhibitor, 19] |

Continued, compound first:

| SMILES | Ki [1] | Ki [2] |
| --- | --- | --- |
| O=[N+]([O-])c1ccc(O[C@@H]2O[C@H](CO)C(O)C2O)cc1 (stereo not given in full) [OPRT inhibitor, 1] | 190 nM | 120 nM |
| O=[N+]([O-])c1ccc(O[C@@H]2O[C@H](COP(=O)(O)O)C(O)C2O)cc1 (stereo not given in full) [OPRT inhibitor, 2] | 40 nM | 41 nM |
| O=c1[nH]c(=O)n(C[C@@H]2N[C@H](CO)C(O)C2O)cc1Br (stereo not given in full) [OPRT inhibitor, 3] | 350 nM | 530 nM |
| O=c1[nH]c(=O)n(C[C@@H]2N[C@H](COP(=O)(O)O)C(O)C2O)cc1Br (stereo not given in full) [OPRT inhibitor, 4] | 370 nM | 200 nM |
| N#Cc1cc(=O)[nH]c(=O)n1C[C@@H]1N[C@H](CO)C(O)C1O (stereo not given in full) [OPRT inhibitor, 5] | 300 nM | 360 nM |
| N#Cc1cc(=O)[nH]c(=O)n1C[C@@H]1N[C@H](COP(=O)(O)O)C(O)C1O (stereo not given in full) [OPRT inhibitor, 6] | 350 nM | 140 nM |
| O=C1c2cc(=O)[nH]c(=O)n2C[C@H]2C(O)C(O)[C@@H](CO)N12 (stereo not given in full) [OPRT inhibitor, 7] | 270 nM | 110 nM |
| O=C1c2cc(=O)[nH]c(=O)n2C[C@H]2C(O)C(O)[C@@H](COP(=O)(O)O)N12 (stereo not given in full) [OPRT inhibitor, 8] | 170 nM | 90 nM |
| O=c1[nH]c(=O)n(CCN2CC(O)C(O)[C@H]2CO)cc1Br (stereo not given in full) [OPRT inhibitor, 9] | 270 nM | 80 nM |
| O=C(O)c1ccncc1[C@@H]1N[C@H](COP(=O)(O)O)C(O)C1O (stereo not given in full) [OPRT inhibitor, 12] | 15500 nM | 4300 nM |
| O=[N+]([O-])c1ccc(CCNC(CO)CO)cc1 [OPRT inhibitor, 20] | 510 nM | 120 nM |
